{
  "source": "patent US10105440B2",
  "about": "“Synthetic derivatives of MPL and uses thereof” (VARIATION BIOTECHNOLOGIES INC., priority 2011, dated 2018)",
  "key": {"[1]": {"tested_on": "Human Peripheral Blood Mononuclear Cell (hPBMC)", "assay": "Cytokine induction assay (BD Cytometric Bead Array) in hPBMC culture supernatants", "type": "cell-based", "conditions": "human PBMCs (n=3) stimulated 48 hours, CBA assay", "excerpt": "The BD™ Cytometric Bead Array (CBA) Human inflammatory Cytokines Kit was used to quantitatively measure Tumor Necrosis Factor (TNF a), Interleukin-6 (IL-6) and Interleukin-1β (IL-1β) protein levels in single samples of Human Peripheral Blood Mononuclear Cell (hPBMC) culture supernatants pretreated with either the adjuvant PHAD or MAV4. The detection reagent provided in the kit was a mixture of phycoerythrin (PE)-conjugated antibodies, which provides a fluorescent signal in proportion to the amount of bound cytokine.\nWhen the capture beads and detector reagent are incubated with an unknown sample containing recognized cytokines, sandwich complexes (capture bead+cytokine+detection reagent) are formed. These complexes are measured using flow cytometry.\nTo perform the assay lyophilized human inflammatory cytokine standards were reconstituted with assay diluent and serially diluted (standard curve for each protein covers a defined set of concentrations from […]) and test samples were diluted to the desired dilution factor using the assay diluent before mixing all assay tubes with capture beads (50 μl) and PE detection reagent (50 μl). […] Samples were then analyzed by flow cytometry and data was analyzed using FCAP Array Software. […]"}, "[2]": {"assay": "Reverse phase HPLC analysis of adjuvant co-melted with 1-monopalmitoyl glycerol (thermostability)", "type": "physicochemical", "experimental": "Reverse phase HPLC analysis of PHAD and MAV4 co-melted with 1-monopalmitoyl glycerol at the inverted melt method temperature (Example 4) was used to evaluate the thermostability or thermolability of the two adjuvants under these thermal conditions. In the procedure, the samples were prepared as follows, in isopropanol (IPA) using 1.5 ml autoinjection vials as duplicates: PHAD: 20 μg PHAD+180 μg 1-monopalmitoyl glycerol (1:9 wt ratio); MAV4: 10 μg+90 μg 1-monopalmitoyl glycerol (1:9 wt ratio).\nThe samples were lyophilized overnight. The dried samples were melted for six minutes at 120° C. and 140° C. Each sample was then dissolved in IPA to give a concentration of 0.1 μg/μl for an HPLC load of 20 μL."}},
  "data": [
    {"substance": "phosphorylated hexaacyl disaccharide [PHAD]", "values": [
      {"measurement": "secretion of TNF-α, IL-1β and IL-6", "setting": "[1]", "value": "induced dose-dependent immune responses"},
      {"measurement": "Area Under the Curve (AUC) of the HPLC peak", "setting": "[2]; co-melted with 1-monopalmitoyl glycerol (1:9 wt), melted six minutes at 140° C. versus 120° C.", "value": "significant decrease"},
      {"measurement": "minor peaks (degradation) in the chromatogram", "setting": "[2]; co-melted with 1-monopalmitoyl glycerol, melted at 120° C. and 140° C.", "value": "No minor peaks were observed"}
    ]}
  ]
}
